Experimental data from PMC11971462, “Generation and validation of a novel multitarget small molecule in glioblastoma” (Cell Death & Disease, 2025).

Tests used:
U87-MG cells [1] = experiment: Washout experiment after treatment; type: in vivo, athymic nude-Foxn1nu mice; settings: after 4 weeks treatment; controls 10 days
Method: (§1) For tumor growth experiments, 5 × 10^5 U87-MG cells were subcutaneously injected into two bottom flanks of athymic nude-Foxn1^nu mice, and once tumors reached a size of 25-50 mm^3, mice were sorted into groups taking into account gender and tumor size. Afterwards, mice were intratumorally treated with vehicle, SAHA 100 µM or DDI199 100 µM following a schedule of 5 days on and 2 days off. In combined treatment, mice were treated intraperitoneally with 0.5 mg/Kg of TMZ for 5 days and intratumorally following a schedule of 5 days on and 2 days off with vehicle, SAHA 100 µM or DDI199 100 µM. After 4 weeks of treatment, some mice were kept for washout experiment, while the rest were sacrificed and tumors were extracted for immunohistochemistry and to disaggregate for reinjection and oncosphere formation studies. For reinjection assays, 1.5 × 10^5 cells were subcutaneously injected and tumor size was periodically measured. Once tumors reached end-point criteria, they were extracted for immunohistochemical analysis. An external caliper was used for tumor size measurement and the tumor volume was estimated using the formula V = L · W^2 · 0.5 (where L is tumor length and W is the tumor width).

U87-MG cells [2] = experiment: Subcutaneous U87-MG tumor growth, combined treatment with TMZ; type: in vivo, athymic nude-Foxn1nu mice; settings: end-point, controls 600 mm^3
Method: as §1

U87-MG cells [3] = experiment: Subcutaneous U87-MG tumor growth, single treatment; type: in vivo, athymic nude-Foxn1nu mice; settings: day 34, 100 µM intratumoral, 5 days on 2 days off; controls 800 mm^3
Method: as §1

U87-MG cells [4] = experiment: Cell viability with TMZ and DDI199 alone or combined; type: cell-based, human; settings: 72 h, 250 µM TMZ or 0.5 µM DDI199 alone
Method: MTT assay was used to study cell viability. For that, cells were seeded at a density of 1.5 × 10^3 cells/well in 96-well plates, incubated overnight and then treated with increasing concentrations of DDI199. After 72 h of treatment, MTT absorbance was measured at 570 nm. GraphPad Prism software was used to analyze results and calculate IC50 values.

SMILES: O=C(CCCCCCC(=O)Nc1ccccc1)NO [SAHA, Vorinostat, reference compound]
- Time to end-point volume after washout (U87-MG cells [1]): 10 days
- Mean tumor volume, combined with TMZ (U87-MG cells [2]; TMZ 0.5 mg/kg ip 5 days + 100 µM intratumoral): 355 mm^3
- Mean final tumor volume (U87-MG cells [3]): 550 mm^3

SMILES: Cn1nnc2c(C(N)=O)ncn2c1=O [TMZ, temozolomide, reference compound]
- Mean tumor volume, TMZ alone (U87-MG cells [2]; TMZ 0.5 mg/kg ip 5 days): 400 mm^3
- Cell viability, single agent (U87-MG cells [4]): reduced cell viability
